Each sequence was assayed on internal ribosome entry site of the Hepatitis C virus, nucleotides 1-372 (HCV-IRES) RNA (assay: Hybridization of Cy3-labeled HCV-IRES RNA to DNA 5mer array). Conditions: address among the 40 most fluorescent in 3 out of 5 arrays; HCV-IRES RNA 92.7 nM, 4° C. overnight, scanned at 532 nm.
Format: binding
Description: A short DNA 5mer array was made to order by Combimatrix® Mukilteo, Wash. The array contained 1,000 of the […] possible DNA 5mer oligomers, and provided a separate address for each oligomer.
The target nucleic acid sequence used was the RNA transcript of the internal ribosome entry site of the Hepatitis C virus, nucleotides 1-372 (HCV-IRES). The RNA was prepared using a Megascrip™ T7 kit, nuclease free water and 5-(3aminoallyl)-UTP, which were all provided by Ambion Inc. A DNA template encoding the HCV-IRES was constructed according to standard techniques and linearized. RNA synthesis reaction mixture contained the following:
The reaction mixture was incubated at 30° C. overnight and purified using Rneasy® kit from QIAGEN, Inc. Target Sequence was then labeled using a Cy3 monoreactive dye pack from Amersham Biosciences, Inc. Dried HCV-IRES RNA was added to 20 μL of sodium carbonate (0.1 M pH 8.5) followed by 20 μL Cy3 dye solution. The reaction mixture was mixed and incubated at room temperature for 1 hour in the dark and purified using RNeasy® mini-kit.
The array was incubated with RNase free water for 30 minutes at 37° C. then washed three times with wash buffer (300 mM NaCl, 100 mM MgCl2). Hybridization was effected by adding a solution of HCV-IRES RNA (92.7 nM in 300 mM NaCl, 100 mM MgCl2 and 100 mM Tris pH 7.4) into the hybridization chamber. The array was incubated at 4° C. overnight in the dark and rinsed three times with wash buffer.
If an address corresponding to the same oligomer was selected in 3 out of 5 arrays analyzed, that oligomer was scored as likely binding ligand for the HCV-IRES RNA.

Row | Sequence | likely binding candidates for HCV-IRES
1 | TTCCC | likely binding candidates
2 | GGTCC | likely binding candidates
3 | TTCTC | likely binding candidates
4 | GGGGG | likely binding candidates
5 | GTCCC | likely binding candidates
6 | GGCCC | likely binding candidates
